≈ marks a conversion by molar mass, not a printed value.
Legend:
Format in all cases: cell-based
[1] = test system: HCT15 (colon adenocarcinoma); test: In vitro cytotoxicity, sulforhodamine B (SRB) method, HCT15; details: Homo sapiens; HCT-15, SRB method; read-out: cytotoxicity (ED50) HCT-15
Description: (§1) The chalcone derivatives of the present invention were evaluated for in vitro cytotoxicity against human carcinoma cell lines using a sulforhodamine B (SRB) method, which was developed in 1989 by the National Cancer Institute (NCI), USA.
(§2) HCT15 (colon adenocarcinoma; ATCC CCL-225), PC-3 (prostate adenocarcinoma; ATCC CRL-1435), and A-549 (lung carcinoma; ATCC CCL-185) cell lines were used. All of these carcinoma cells were sub-cultured at the Korean Research Institute of Bioscience and Biotechnology (KRIBB), Korea.
(§3) The human carcinoma cell lines were cultured in 10% FCS-containing RPMI 1640 medium (Gibco Cat. No. 31800) in an incubator at 37° C. under 5% CO2, and sub-cultured twice per week.
(§4) Cells were detached from the attached surface using 0.25% Trypsin (Sigma) and 3 mM CDTA (1,2-cyclohexane diamine tetraacetic acid, Sigma) in phosphate buffered saline (PBS, Sigma).
(§5) Compounds to be tested (the chalcone derivatives set forth in Table 1) were dissolved in a small amount of dimethylsulfoxide (DMSO, Sigma), and diluted in culture medium to a desired concentration. The final concentration of DMSO was less than 0.5%. The diluted compounds (final concentration: 30, 10, 3, 1 and 0.3 μg/ml) were sterilized through a 0.22-μm microfilter (Millipore). The cytotoxicity of the compounds to human carcinoma cell lines was assessed using a typical SRB method.

[2] = test system: A-549 (lung carcinoma); test: In vitro cytotoxicity, sulforhodamine B (SRB) method, A-549; details: Homo sapiens, A549; A-549, SRB method; read-out: cytotoxicity (ED50) A-549
Description: as §1, §2, §3, §4, §5

[3] = test system: PC-3 (prostate adenocarcinoma); test: In vitro cytotoxicity, sulforhodamine B (SRB) method, PC-3; details: Homo sapiens; PC-3, SRB method; read-out: cytotoxicity (ED50) PC-3
Description: as §1, §2, §3, §4, §5

SMILES | IC50 [1] [µg/mL] | IC50 [2] [µg/mL] | IC50 [3] [µg/mL]
O=C(/C=C/c1ccc(O)cc1)c1ccc(OS(=O)(=O)c2ccc([N+](=O)[O-])cc2)cc1 [Compound 38, 4′-(p-nitrobenzenesulfonate)-4-hydroxychalcone] | 52 (≈ 122 µM) | 57 (≈ 134 µM) | 47 (≈ 110 µM)
Nc1ccc(S(=O)(=O)Oc2ccc(C(=O)/C=C/c3ccc(O)cc3)cc2)cc1 [Compound 39, 4′-(p-aminobenzenesulfonate)-4-hydroxychalcone] | 39 (≈ 98.6 µM) | 37 (≈ 93.6 µM) | 38 (≈ 96.1 µM)
O=C(/C=C/c1ccc(O)cc1)c1ccc(OS(=O)(=O)c2ccccc2)cc1 [Compound 40, 4′-(benzenesulfonate)-4-hydroxychalcone] | 31 | 30 | 39
CS(=O)(=O)Oc1ccc(C(=O)/C=C/c2ccc(O)cc2)cc1 [Compound 41, 4′-(methanesulfonate)-4-hydroxychalcone] | 42 | 49 | 48
Cc1ccc(S(=O)(=O)Nc2ccc(C(=O)/C=C/c3ccc(O)c(O)c3)cc2)cc1 [Compound 42, 4′-(p-toluenesulfonylamino)-3,4-dihydroxychalcone] | 7 (≈ 17.1 µM) | 10 (≈ 24.4 µM) | 18 (≈ 44 µM)
Cc1ccc(S(=O)(=O)Nc2ccc(C(=O)/C=C/c3cccc(O)c3O)cc2)cc1 [Compound 43, 4′-(p-toluenesulfonylamino)-2,3-dihydroxychalcone] | 12 (≈ 29.3 µM) | 18 (≈ 44 µM) | 14 (≈ 34.2 µM)
Cc1ccc(S(=O)(=O)Nc2ccc(C(=O)/C=C/c3cc(O)ccc3O)cc2)cc1 [Compound 45, 4′-(p-toluenesulfonylamino)-2,5-dihydroxychalcone] | 11 (≈ 26.9 µM) | 12 (≈ 29.3 µM) | 14 (≈ 34.2 µM)
Cc1ccc(S(=O)(=O)Nc2cccc(C(=O)/C=C/c3ccc(O)c(O)c3)c2)cc1 [Compound 46, 3′-(p-toluenesulfonylamino)-3,4-dihydroxychalcone] | 9 (≈ 22 µM) | 13 (≈ 31.7 µM) | 8 (≈ 19.5 µM)
Cc1ccc(S(=O)(=O)Nc2ccccc2C(=O)/C=C/c2ccc(O)c(O)c2)cc1 [Compound 47, 2′-(p-toluenesulfonylamino)-3,4-dihydroxychalcone] | 8 (≈ 19.5 µM) | 11 (≈ 26.9 µM) | 17 (≈ 41.5 µM)
O=C(/C=C/c1ccc(O)c(O)c1)c1ccc(NS(=O)(=O)c2ccc(O)cc2)cc1 [Compound 48, 4′-(p-hydroxybenzenesulfonylamino)-3,4-dihydroxychalcone] | 7 (≈ 17 µM) | 8 (≈ 19.4 µM) | 11 (≈ 26.7 µM)
O=C(/C=C/c1cccc(O)c1O)c1ccc(NS(=O)(=O)c2ccc(O)cc2)cc1 [Compound 49, 4′-(p-hydroxybenzenesulfonylamino)-2,3-dihydroxychalcone] | 8 (≈ 19.4 µM) | 6 (≈ 14.6 µM) | 14 (≈ 34 µM)
O=C(/C=C/c1ccc(O)cc1O)c1ccc(NS(=O)(=O)c2ccc(O)cc2)cc1 [Compound 50, 4′-(p-hydroxybenzenesulfonylamino)-2,4-dihydroxychalcone] | 9 (≈ 21.9 µM) | 10 (≈ 24.3 µM) | 9 (≈ 21.9 µM)
O=C(/C=C/c1cc(O)ccc1O)c1ccc(NS(=O)(=O)c2ccc(O)cc2)cc1 [Compound 51, 4′-(p-hydroxybenzenesulfonylamino)-2,5-dihydroxychalcone] | 6 (≈ 14.6 µM) | 13 (≈ 31.6 µM) | 11 (≈ 26.7 µM)
O=C(/C=C/c1ccc(O)c(O)c1)c1cccc(NS(=O)(=O)c2ccc(O)cc2)c1 [Compound 52, 3′-(p-hydroxybenzenesulfonylamino)-3,4-dihydroxychalcone] | 7 (≈ 17 µM) | 6 (≈ 14.6 µM) | 5 (≈ 12.2 µM)
O=C(/C=C/c1cccc(O)c1O)c1cccc(NS(=O)(=O)c2ccc(O)cc2)c1 [Compound 53, 3′-(p-hydroxybenzenesulfonylamino)-2,3-dihydroxychalcone] | 8 (≈ 19.4 µM) | 7 (≈ 17 µM) | 8 (≈ 19.4 µM)
O=C(/C=C/c1ccc(O)cc1O)c1cccc(NS(=O)(=O)c2ccc(O)cc2)c1 [Compound 54, 3′-(p-hydroxybenzenesulfonylamino)-2,4-dihydroxychalcone] | 7 (≈ 17 µM) | 9 (≈ 21.9 µM) | 9 (≈ 21.9 µM)
O=C(/C=C/c1cc(O)ccc1O)c1cccc(NS(=O)(=O)c2ccc(O)cc2)c1 [Compound 55, 3′-(p-hydroxybenzenesulfonylamino)-2,5-dihydroxychalcone] | 6 (≈ 14.6 µM) | 7 (≈ 17 µM) | 12 (≈ 29.2 µM)
